Reference: patent publication US11845681B2, “Process and plant for treating wastewater containing micropollutants of pharmaceutical origin” (Cockerill Maintenance & Ingenierie S.A., priority 2018, dated 2023)

Key:
suspended biomass = details: constant includes sorption, desorption and biodegradation; cited from earlier work
[1] = Purification efficiency of biologically activated carbon (BAC) columns C1 to C5; details: for average degradation: detailed analysis on 16 molecules, over column conditions; for effect of EBCT on degradation: longer EBCTs (e.g. 19 minutes)
From the text: The activated carbon used was in GAC form, for example of the Norit 830W type (Cabot). According to the invention, however, several types of activated carbon may be used, by varying the nature of the carbon, the specific surface developed and the type of pores.
According to one embodiment, the GAC was conditioned for 2 months with the wastewater effluents coming from the MB-MBR before being placed in an acrylic glass column. Operation was monitored for approximately 5 months. The purpose of conditioning is to reduce the time before the breakthrough point of the filter, i.e. the moment when the adsorption capacity is exhausted and biodegradation is the dominant process.
The biological purification performance of micropollutants was evaluated according to the following methodology: • 1. Saturation of adsorption sites and verification by measuring the reduction in dissolved organic carbon; • 2. Evaluation of bacterial activity via measurements of oxygen consumption; • 3. Correlation analyzes between bacterial activity and micropollutant removal.
Based on the operational parameters selected for columns C1 to C5, the purification efficiencies of 12 of the 13 molecules indicative of the efficiency of the method are presented in FIG. 8.

fixed biomass = details: constant includes sorption, desorption and biodegradation; cited from earlier work

SMILES	Kbio, Biomass suspended (suspended biomass)	average degradation [1]	effect of EBCT on degradation [1]	Kbio, Biomass Fixed (fixed biomass)
O=C(O)Cc1ccccc1Nc1c(Cl)cccc1Cl [Diclofenac]	≤0.1 l/g biomass · day	around 50%	better degraded with longer EBCTs	1.3-1.7 l/g biomass · day
NC(=O)N1c2ccccc2C=Cc2ccccc21 [Carbamazepine]	≤0.1 l/g biomass · day	–	–	≤0.1 l/g biomass · day
CC(C)NCC(O)COc1ccc(CC(N)=O)cc1 (stereo not shown) [Atenolol]	0.67-0.9 l/g biomass · day	–	–	0.53-0.67 l/g biomass · day
CC(=O)Nc1ccc(S(=O)(=O)Nc2cc(C)on2)cc1 [N-acetylsulfamethoxazole]	1.1-1.4 l/g biomass · day	–	–	0.7-1.6 l/g biomass · day
O=P1(N(CCCl)CCCl)NCCCO1 (stereo not shown) [cyclophosphamide]	–	around 50%	better degraded with longer EBCTs	–
CC[C@H]1OC(=O)[C@H](C)[C@@H](O[C@H]2C[C@@](C)(OC)[C@@H](O)[C@H](C)O2)[C@H](C)[C@@H](O[C@@H]2O[C@H](C)C[C@H](N(C)C)[C@H]2O)[C@](C)(OC)C[C@@H](C)C(=O)[C@H](C)[C@@H](O)[C@]1(C)O [Clarithromycin]	0.18-0.29 l/g biomass · day	around 50%	better degraded with longer EBCTs	≤0.2 l/g biomass · day
